According to article PMC3311999 (2011):

Molecular target: PI3K (PIK3CA/PIK3R1) (Homo sapiens, UniProt P42336)
Test: Michaelis-Menten kinetics
Type: biochemical

Chain of PI3K (PIK3CA/PIK3R1) (P42336 whole entry): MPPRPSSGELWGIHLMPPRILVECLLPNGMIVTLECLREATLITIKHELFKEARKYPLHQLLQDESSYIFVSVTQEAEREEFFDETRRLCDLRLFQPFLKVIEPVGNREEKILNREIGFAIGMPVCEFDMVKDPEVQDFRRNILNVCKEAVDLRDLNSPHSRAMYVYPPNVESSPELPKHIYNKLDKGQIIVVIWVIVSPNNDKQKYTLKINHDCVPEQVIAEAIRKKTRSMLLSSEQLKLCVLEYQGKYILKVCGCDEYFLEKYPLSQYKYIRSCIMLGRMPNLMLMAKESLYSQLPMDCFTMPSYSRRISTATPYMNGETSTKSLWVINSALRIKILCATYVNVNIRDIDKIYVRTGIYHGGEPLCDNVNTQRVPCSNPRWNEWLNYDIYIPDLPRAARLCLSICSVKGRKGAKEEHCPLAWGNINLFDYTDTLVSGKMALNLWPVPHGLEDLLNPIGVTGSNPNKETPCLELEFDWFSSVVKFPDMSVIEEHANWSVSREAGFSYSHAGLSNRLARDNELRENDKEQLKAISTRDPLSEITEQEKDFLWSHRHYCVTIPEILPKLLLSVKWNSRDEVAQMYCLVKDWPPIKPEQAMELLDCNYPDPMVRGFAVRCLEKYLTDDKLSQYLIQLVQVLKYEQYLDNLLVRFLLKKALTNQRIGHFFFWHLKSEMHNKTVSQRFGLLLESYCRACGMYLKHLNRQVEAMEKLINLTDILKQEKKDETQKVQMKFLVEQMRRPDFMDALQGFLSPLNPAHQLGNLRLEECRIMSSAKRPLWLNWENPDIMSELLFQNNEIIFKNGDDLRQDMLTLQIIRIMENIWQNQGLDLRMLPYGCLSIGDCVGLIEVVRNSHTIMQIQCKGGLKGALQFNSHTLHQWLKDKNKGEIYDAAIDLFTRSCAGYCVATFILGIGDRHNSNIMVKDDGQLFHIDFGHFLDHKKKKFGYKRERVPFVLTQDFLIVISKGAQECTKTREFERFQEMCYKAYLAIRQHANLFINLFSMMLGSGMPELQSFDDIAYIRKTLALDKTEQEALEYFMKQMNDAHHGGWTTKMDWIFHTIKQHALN
Chain of PI3K (PIK3CA/PIK3R1) (P27986 2-724 partner): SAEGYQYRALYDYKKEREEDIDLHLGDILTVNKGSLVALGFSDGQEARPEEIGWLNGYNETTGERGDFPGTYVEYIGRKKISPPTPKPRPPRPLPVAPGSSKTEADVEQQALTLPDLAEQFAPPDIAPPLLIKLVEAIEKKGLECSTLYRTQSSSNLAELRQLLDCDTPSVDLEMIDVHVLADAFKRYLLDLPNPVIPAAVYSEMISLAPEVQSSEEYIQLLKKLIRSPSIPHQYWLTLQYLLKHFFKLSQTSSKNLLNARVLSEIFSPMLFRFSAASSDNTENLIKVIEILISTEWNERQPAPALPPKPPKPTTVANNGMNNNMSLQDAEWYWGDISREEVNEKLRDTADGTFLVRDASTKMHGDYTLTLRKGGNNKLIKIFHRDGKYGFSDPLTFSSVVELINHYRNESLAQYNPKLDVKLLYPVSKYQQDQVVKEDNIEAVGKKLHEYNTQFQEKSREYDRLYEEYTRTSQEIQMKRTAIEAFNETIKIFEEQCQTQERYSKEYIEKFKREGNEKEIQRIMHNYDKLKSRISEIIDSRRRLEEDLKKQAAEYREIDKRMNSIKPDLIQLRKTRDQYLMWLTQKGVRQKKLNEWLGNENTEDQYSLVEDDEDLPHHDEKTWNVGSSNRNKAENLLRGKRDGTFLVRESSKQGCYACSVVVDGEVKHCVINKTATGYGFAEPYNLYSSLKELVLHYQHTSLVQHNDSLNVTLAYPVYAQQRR

| Substance | Km |
| --- | --- |
| BODIPY-PIP2 | 68.7 ± 5.2 µM |
| FL-PIP2 | 44.8 ± 9.8 µM |
